Laboratory results: patent publication US20050238589A1, “Methods and compositions for preventing or treating periodontal diseases” (priority 2004, published 2005)

Experiments:
[1] = system: PGE2 generation from gingival homogenates; settings: ElAttar et al. 1984; cited from earlier work
[2] = system: COX-derived eicosanoids in crevicular fluid; settings: cited from earlier work
CF-PGE2 levels = settings: in humans; cited from earlier work
[3] = system: P. gingivalis and ligature-induced experimental periodontitis; assay: Morphometric analysis of mandibles in rabbit experimental periodontitis; type: in vivo, New Zealand White rabbits; settings: topical resolvin E1 before P. gingivalis application, every other day for 6 weeks; versus vehicle (ethanol)
[4] = system: P. gingivalis and ligature-induced experimental periodontitis; assay: Radiographic analysis (Bjorn technique) in rabbit experimental periodontitis; type: in vivo, New Zealand White rabbits
[5] = system: P. gingivalis and ligature-induced experimental periodontitis; assay: Histological analysis (HE) in rabbit experimental periodontitis; type: in vivo, New Zealand White rabbits; settings: topical application; rabbits with P. gingivalis and ligature placement
[6] = p<0.05 for vehicle group compared to resolvin E1 or ligature alone

| SMILES | PGE2 generation from gingival homogenates [1] | CF-PGE2 levels, gingival inflammation, tooth attachment loss and bone loss ([2]; Pauletto et al. 1997, in some cases bone gain) | COX-derived eicosanoids in crevicular fluid (CF) ([2]; animals taking flurbiprofen) | CF-PGE2 levels (CF-PGE2 levels) | bone destruction (defleshed bone specimens, FIG. 1) [3] | gingival inflammation (gingival tissue of mandibles, FIG. 1) [3] | percentage of bone loss calculated by the Bjorn technique (FIG. 5) [4, 6] | percentage of tooth in bone measured on radiographs (FIG. 4) [4, 6] | bone loss, radiographic appearance of alveolar bone (FIG. 3) ([4]; topical application, bone at the same level as ligature alone) | bone loss, histology (FIG. 6) [5] | inflammatory changes, histology (FIG. 6) [5] |
| --- | --- | --- | --- | --- | --- | --- | --- | --- | --- | --- | --- |
| CC(C(=O)O)c1ccc(-c2ccccc2)c(F)c1 (centres unmarked) [flurbiprofen] | significantly inhibited | reduced | decreased | dramatically decreased | – | – | – | – | – | – | – |
| CC[C@@H](O)/C=C/C=C\C[C@@H](O)/C=C/C=C/C=C\[C@@H](O)CCCC(=O)O [resolvin E1] | – | – | – | – | prevented | prevented | prevents the destructive effects | maintenance of bone levels | prevented the bone loss | prevented | prevented |
